Laboratory results: article PMC6010002, “Synthesis, pharmacology and molecular docking on multifunctional tacrine-ferulic acid hybrids as cholinesterase inhibitors against Alzheimer’s disease” (Journal of Enzyme Inhibition and Medicinal Chemistry, 2018)
Where two headings read alike, the source gives them in different places.

Columns and labels:
[1] = biological target: T1, AChE (EC 3.1.1.7) from electric eel (Electrophorus electricus, UniProt O42275); assay: biochemical; settings: for SI (selectivity index, AChE IC50/BuChE IC50): eeAChE IC50 / eqBuChE IC50; for IC50: eeAChE, mean ± SEM of triplicate independent experiments
T1 construct: AChE (EC 3.1.1.7, Type VI-S, from electric eel, C3389); purchased Sigma-Aldrich C3389; host or cells: electric eel (natural source)
Procedure: (§1) AChE (EC 3.1.1.7, Type VI-S, from electric eel, C3389) and BuChE (EC 3.1.1.8, from equine serum, C0663), 5,5’-dithiobis (2-nitrobenzoic acid) (DTNB, D218200), acetylthiocholine iodide (ATC, A5751) and butyrylthiocholine iodide (BTC, B3253) used as substrates were obtained from Sigma-Aldrich (St. Louis, MO).
(§2) The inhibitory capacity of the synthesised compounds on AChE and BuChE biological activity in this paper were evaluated according to our previously reported method. Briefly, AChE/BuChE stock solution was diluted with 0.2 M phosphate buffer pH 8.0 to give 2.5 units/mL (for electrophorus electricus (eeAChE) and equine serum (eqBuChE)). ATC/BTC iodide solution (0.075 M) was dissolved in deionized water. […] The assay solution was prepared as follows: potassium dihydrogen phosphate (1.36 g, 10 mmol) was dissolved in 100 ml of water. The pH of the solution was then adjusted to 8.0 ± 0.1 with KOH. Stock solutions of the test samples were dissolved in ethanol to give a final concentration of 10 − 4^ M when diluted to the final volume of 3.32 ml. For each compound, a dilution series of five different concentrations 10 − 5–10 − 9^9 M were prepared.
(§3) For measurement, a cuvette containing 3 mL of phosphate buffer, 100 μL of eeAChE or eqBuChE, 100 μL of DTNB, and 100 μL of the test compound solution was added in sequence. The reaction was initiated by adding 20 μL of ATC or BTC and the solution was mixed immediately. […] For the reference value, 100 μL of water was replaced for the test compound solution. For the blank control, additional 100 μL of water was also replaced for the enzyme solution. The measurement of each concentration was assayed in triplicate. GraphPad Prism 5 (GraphPad Software, Inc., La Jolla, CA) was used for data processing. The inhibition curve was fitted by plotting percentage enzyme activity (100% for the reference) versus the logarithm of test compound concentration. The half maximal inhibitory concentration (IC50) values were calculated according to the curve and the data were shown in mean ± SEM.
(§4) Inhibitory activities were presented as IC50 (nM).

[2] = biological target: T2, BuChE (EC 3.1.1.8) from horse serum (Equus caballus, UniProt P81908); assay: biochemical; settings: eqBuChE, mean ± SEM of triplicate independent experiments
T2 construct: BuChE (EC 3.1.1.8, from equine serum, C0663); purchased Sigma-Aldrich C0663; host or cells: equine serum (natural source)
Procedure: as §1, §2, §3, §4

[3] = biological target: T3, Aβ1–42 (Homo sapiens, UniProt P05067); assay: Inhibition of self-induced Aβ1–42 aggregation (Thioflavin T assay); assay type: biochemical; settings: ThT fluorescence, 24 h incubation, read-out: Inhibitory rate of compounds (25 μM) on self-induced Aβ1-42 aggregation
T3 construct: aliquots of 2 μL of Aβ1–42 (AS-64129–05 Anaspec Inc.); purchased Anaspec Inc. AS-64129–05
Procedure: Inhibitory effects of the compounds on self-induced Aβ1–42 aggregation were tested through a Thioflavin T (ThT)-(T3516, Sigma-Aldrich) binding assay.
The calculation of the inhibitory rate of Aβ1–42 self-induced aggregation was performed as the following equation: (1 − IFi/IFc) × 100%. IFi and IFc were the fluorescence intensities measured in the presence and absence of inhibitors, respectively, after subtracting the background fluorescence of the 5 mM ThT solution. Each compound was measured in triplicate.
A thioflavin T-based fluorometric assay was performed.

[4] = system: HepG2 cells; settings: 24 h, MTT, mean ± SEM n = 3
Procedure: To determine the possible drug-induced hepatotoxicity, 10d and 10g were selected for preliminary hepatotoxicity evaluation. Heparinised serum was obtained after the treatment of the compounds at 8, 22, and 36 h, respectively. […] Additionally, immunohistochemical staining was performed on the liver tissues for the histopathological study.
Methods for Cell Viability Assay. The human hepatocellular HepG2 cells were […]
Cells were seeded into 96-well plates at a density of 3
37 °C for the following experiments. For cytotoxicity test, cells were treated with 0.05- […]
Cell viability was measured by 3-(4,5- dimethylthiazol-2-yl)-2,5-diphenyltetrazolium bromide (MTT) analysis. In brief, 15 µL of MTT was added into each well and incubated at 37 °C for 4 h. The […]
viability was calculated and presented by the percentage of vehicle-treated group.

[5] = system: scopolamine-induced cognition-impaired adult ICR mice; assay: Morris water maze in scopolamine-induced cognition-impaired mice; assay type: in vivo; settings: 30 mg/kg oral, scopolamine 1 mg/kg i.p., mean ± SEM n = 6
Procedure: Behavioral studies were performed using the Morris water maze[25] according to our method reported previously. Adult male imprinting control region (ICR) mice (8–10 weeks old, weight 20–25 g) were obtained from the Yangzhou University Medical Center (Yangzhou, China). All animal handling and experimental protocols were approved by the Institutional Animal Care and Use Committee of the China Pharmaceutical University. Scopolamine hydrobromide was purchased from Aladdin Reagents (S107418, Shanghai, China).
A circular pool (120 cm in diameter, 60 cm height) which was fixed with an escape platform (10 cm diameter) and filled to a depth of 40 cm fresh water (kept at 25 °C) composed the water maze and this water maze placed in a lit room was used to evaluate the cognition function and memory capacity of mice according to our previously described method[24] . After five days of learning and memory training, a probe trial was performed on day 6. For the evaluation of cognitive function, each mouse was individually trained on a visible-platform (labeled by a small flag, 5 cm tall) for two days and was followed by a hidden-platform version (placed 1 cm below the surface of the water) of the water maze from day 3 to day 5. All mice were subjected to two training trials daily, each of which lasted for 90 s. The time for each mouse to find the platform (a successful escape) was recorded. […] On the last day (day 6), a probe trial was given to the mice in which the platform was removed from the pool and each mouse was allowed 90 s to search for the platform. The time the animals spent to reach the missing platform location and the number of times they crossed that location were recorded.
Data for the time of escape latency, the swimming trajectory, and the number of visual platform crossings were recorded by Panlab SMART 3.0 (Panlab, S.L.U, Spain) and GraphPad Prism 5 was used to evaluate the level of memory retention.

[6] = system: adult male ICR mice; assay type: in vivo; settings: serum, 3 mg/100 g body weight, mean ± SEM n = 6
Procedure: . Heparinised serum was obtained from the retrobulbar plexus 8, 22, and 36 h after the administration and were subjected to hepatotoxicity evaluation. The activity of aspartate aminotransferase (AST) and alanine aminotransferase (ALT), two indicators of liver damage, was determined by a commercial assay kit (EF551 and EF550 for ALT, EH027 and EF548 for AST, Wako, Japan). The data were analysed by Biochemical Analyzer (HITACHI 7020, Japan).
Mice were sacrificed 1 h after the collection of retrobulbar blood and livers were removed for morphological studies by using the immunohistochemical method. Two 3 mm sections of each liver extending from the hilus to the margin of the left lateral lobe were isolated using ultra-thin semiautomatic microtome (Leica RM2245, Germany) and placed in 10% buffered formaldehyde immediately, fixed for two days, and embedded together in one paraffin block by using paraffin embedding station (Leica EG1150H, Germany). Subsequently, 5 μm sections were prepared from these paraffin blocks. They were deparaffinated and stained with hematoxylin and eosin (H&E) for histopathological examinations.

T2 sequence (P81908 whole entry): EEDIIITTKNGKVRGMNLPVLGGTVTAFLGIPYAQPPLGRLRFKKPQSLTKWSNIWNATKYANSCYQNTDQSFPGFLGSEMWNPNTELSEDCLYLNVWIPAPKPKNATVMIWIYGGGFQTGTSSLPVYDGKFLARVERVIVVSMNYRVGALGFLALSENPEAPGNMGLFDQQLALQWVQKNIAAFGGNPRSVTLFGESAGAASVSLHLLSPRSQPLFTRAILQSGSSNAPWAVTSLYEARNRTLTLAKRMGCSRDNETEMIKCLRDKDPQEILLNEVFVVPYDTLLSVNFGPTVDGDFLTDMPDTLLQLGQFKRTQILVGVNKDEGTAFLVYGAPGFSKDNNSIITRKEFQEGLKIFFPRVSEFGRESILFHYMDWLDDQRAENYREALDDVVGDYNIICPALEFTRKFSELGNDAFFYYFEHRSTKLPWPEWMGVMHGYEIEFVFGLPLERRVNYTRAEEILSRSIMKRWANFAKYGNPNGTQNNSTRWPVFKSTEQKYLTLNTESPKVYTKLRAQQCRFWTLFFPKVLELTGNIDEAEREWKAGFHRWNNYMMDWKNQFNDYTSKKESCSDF
T1 sequence (O42275 24-633): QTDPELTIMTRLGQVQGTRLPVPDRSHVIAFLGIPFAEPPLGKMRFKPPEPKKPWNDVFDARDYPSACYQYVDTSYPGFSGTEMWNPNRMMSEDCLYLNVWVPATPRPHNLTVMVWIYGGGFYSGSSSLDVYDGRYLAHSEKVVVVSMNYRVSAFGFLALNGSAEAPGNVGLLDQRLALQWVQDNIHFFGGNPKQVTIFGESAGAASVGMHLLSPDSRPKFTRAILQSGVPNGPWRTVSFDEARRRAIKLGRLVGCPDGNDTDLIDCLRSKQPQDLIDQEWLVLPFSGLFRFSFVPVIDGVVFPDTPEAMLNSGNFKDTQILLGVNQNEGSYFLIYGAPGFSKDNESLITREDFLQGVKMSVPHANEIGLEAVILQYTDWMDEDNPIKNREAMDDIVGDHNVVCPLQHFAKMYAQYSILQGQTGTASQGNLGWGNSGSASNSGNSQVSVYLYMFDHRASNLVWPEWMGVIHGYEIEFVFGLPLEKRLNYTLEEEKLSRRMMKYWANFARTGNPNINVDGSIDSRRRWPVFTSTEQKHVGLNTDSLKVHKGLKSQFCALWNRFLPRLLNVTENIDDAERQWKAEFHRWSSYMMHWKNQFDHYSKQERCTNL
T3 sequence (P05067 672-713): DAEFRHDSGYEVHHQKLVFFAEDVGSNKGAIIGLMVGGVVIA

SMILES	SI (selectivity index, AChE IC50/BuChE IC50) [1]	IC50 [1] [nM]	IC50 [2] [nM]	further results
COc1cc(/C=C/C(=O)NCCNc2c3c(nc4ccccc24)CCCC3)ccc1OCc1ccc(Cl)cc1 [Compound 10c, (E)-3–(4-((4-chlorobenzyl)oxy)-3-methoxyphenyl)-N-(2-((1,2,3,4-tetrahydroacridin-9-yl)amino)ethyl)acrylamide]	1.6	101 ± 14.6	62.5 ± 9.9	
COc1cc(/C=C/C(=O)NCCNc2c3c(nc4ccccc24)CCCC3)ccc1OCc1ccc(C(F)(F)F)cc1 [Compound 10k, (E)-3–(3-methoxy-4-((4-(trifluoromethyl)benzyl)oxy)phenyl)-N-(2-((1,2,3,4-tetrahydroacridin-9-yl)amino)ethyl)acrylamide]	2.4	129 ± 16.5	52.7 ± 6.3	
COc1cc(/C=C/C(=O)NCCNc2c3c(nc4ccccc24)CCCC3)ccc1OCc1ccc(F)cc1 [Compound 10b, (E)-3–(4-((4-fluorobenzyl)oxy)-3-methoxyphenyl)-N-(2-((1,2,3,4-tetrahydroacridin-9-yl)amino)ethyl)acrylamide]	0.7	115 ± 31.2	163 ± 16.6	
COc1cc(/C=C/C(=O)NCCNc2c3c(nc4ccccc24)CCCC3)ccc1OCc1cccc(C)c1 [Compound 10f, (E)-3–(3-methoxy-4-((3-methylbenzyl)oxy)phenyl)-N-(2-((1,2,3,4-tetrahydroacridin-9-yl)amino)ethyl)acrylamide]	0.2	63.2 ± 13.5	257 ± 3.7	
COc1ccc(COc2ccc(/C=C/C(=O)NCCNc3c4c(nc5ccccc35)CCCC4)cc2OC)cc1 [Compound 10m, (E)-3–(3-methoxy-4-((4-methoxybenzyl)oxy)phenyl)-N-(2-((1,2,3,4-tetrahydroacridin-9-yl)amino)ethyl)acrylamide]	0.6	75.5 ± 12.8	134 ± 11.1	
COc1cc(/C=C/C(=O)NCCNc2c3c(nc4ccccc24)CCCC3)ccc1OCc1ccccc1 [Compound 10a, (E)-3–(4-(benzyloxy)-3-methoxyphenyl)-N-(2-((1,2,3,4-tetrahydroacridin-9-yl)amino)ethyl)acrylamide]	0.4	92.2 ± 18.3	215 ± 39.5	
Oc1ccc(/C=C/c2cc(O)cc(O)c2)cc1 [Resveratrol, reference compound]				inhibition at 25 µM [3]: 45.7%
COc1cc(/C=C/C(=O)NCCNc2c3c(nc4ccccc24)CCCC3)ccc1OCc1ccc(C(C)(C)C)cc1 [Compound 10i, (E)-3–(4-((4-(tert-butyl)benzyl)oxy)-3-methoxyphenyl)-N-(2-((1,2,3,4-tetrahydroacridin-9-yl)amino)ethyl)acrylamide]	1.8	284 ± 59.2	158 ± 22.8	
COc1cc(/C=C/C(=O)NCCNc2c3c(nc4ccccc24)CCCC3)ccc1OCc1ccccc1C [Compound 10e, (E)-3–(3-methoxy-4-((2-methylbenzyl)oxy)phenyl)-N-(2-((1,2,3,4-tetrahydroacridin-9-yl)amino)ethyl)acrylamide]	0.7	64.5 ± 7.4	98.6 ± 19.1	
COc1cc(/C=C/C(=O)NCCNc2c3c(nc4ccccc24)CCCC3)ccc1OCc1ccc(C)cc1 [Compound 10h, (E)-3–(3-methoxy-4-((4-methylbenzyl)oxy)phenyl)-N-(2-((1,2,3,4-tetrahydroacridin-9-yl)amino)ethyl)acrylamide]	0.9	140 ± 34.4	147 ± 22.4	
COc1cccc(COc2ccc(/C=C/C(=O)NCCNc3c4c(nc5ccccc35)CCCC4)cc2OC)c1 [Compound 10l, (E)-3–(3-methoxy-4-((3-methoxybenzyl)oxy)phenyl)-N-(2-((1,2,3,4-tetrahydroacridin-9-yl)amino)ethyl)acrylamide]	0.7	143 ± 40.1	195 ± 16.5	
Nc1c2c(nc3ccccc13)CCCC2 [Tacrine]				Cell viability (% of vehicle) ([4]; HepG2, 25 µM): 106.2 ± 2.3 % of vehicle; Cell viability (% of vehicle) ([4]; HepG2, 125 µM): 97.2 ± 2.9 % of vehicle; Cell viability (% of vehicle) ([4]; HepG2, 250 µM): 58.9 ± 0.7 % of vehicle; Cell viability (% of vehicle) ([4]; HepG2, 500 µM): 22.7 ± 1.6 % of vehicle; Distance to target [5]: 725.64 ± 165.15 cm; Speed in virtual platform [5]: 15.78 ± 1.03 cm/s; Latency to target ([5]; probe trial): 25.85 ± 5.52 s; ALT ([6]; 8 h after i.g. administration): 31.8 ± 2.0 U/L; AST ([6]; 8 h after i.g. administration): 133.7 ± 9.0 U/L; ALT ([6]; 22 h after i.g. administration): 25.4 ± 2.8 U/L; AST ([6]; 22 h after i.g. administration): 124.3 ± 12.1 U/L; ALT ([6]; 36 h after i.g. administration): 25.1 ± 2.7 U/L; AST ([6]; 36 h after i.g. administration): 112.4 ± 11.4 U/L
